Here are results for 124 compounds from a melting point compilation (Tetko et al.).

SMILES strings stand for the structures.

One may read the melting point as the temperature of the solid-liquid transition. In turn, `Nc1cc(-c2cccs2)nn1-c1ccccc1` displayed a melting point of 121 to 123 °C.
`CC(C(=O)O)S(=O)(=O)c1ccc(F)cc1` (centres undefined) had a melting point of 117 to 119 °C.
The compound `O=c1[nH]c2ccccc2n1C1=CCCCC1` returned a melting point of 181 to 183 °C.
On to `CC1C(=O)NC(=O)N1c1ccc(F)cc1` (centres undefined), for which the melting point was 187 to 189 °C.
`CCCCn1nc(C(=O)O)ccc1=O` registered a melting point of 119 to 121 °C.
Under `COC(=O)c1cc2c(C=O)ccc(OC)c2o1` stands 171 to 173 °C.
In turn, `COC(=O)c1noc(C)c1C(C)=O` registered a melting point of 36 to 38 °C.
Under `Nc1ccc(-c2ccc[nH]2)cc1` stands 120 to 122 °C; under `Brc1nn2cc(-c3ccccc3)nc2s1`, 186 to 188 °C; under `CCCn1c(C)cc(C=O)c1C`, 52 to 54 °C.
Under `CCOc1ccc(-c2nnc(N)o2)cc1` stands 238 to 240 °C.
`O=C(O)C(Sc1cc(F)ccc1F)c1ccccc1` (centres undefined) registered a melting point of 106 to 108 °C.
Under `COc1ccc(-c2csc(CC#N)n2)cc1` stands 70 to 72 °C; under `Cc1nc(=NCC(=O)O)c2cc(-c3ccccc3)sc2[nH]1`, 257 to 259 °C; under `O=C(O)c1ccccc1OCc1ccc(Cl)cc1`, 85 to 87 °C.
Under `O=c1[nH]c(-c2ccc(Cl)cc2)co1` stands 241 to 243 °C; under `O=c1oc2ccc(O)cc2s1`, 171 to 173 °C; under `CC(C)(C)c1cc(CCC(=O)O)cc(C(C)(C)C)c1O`, 165 to 167 °C.
`O=C(O)C1(c2cccc(Br)c2)CCCC1` showed a melting point of 158 to 160 °C.
Under `CCCc1nc(C(=O)O)nn1-c1ccccc1F` stands 137 to 139 °C; under `O=[N+]([O-])c1ccccc1S(=O)(=O)N1CCNCC1`, 147 to 149 °C.
Under `OC(CCc1ccccc1)CCc1ccccc1` stands 44 to 46 °C; under `Clc1ccnc(-c2ccccc2)n1`, 69 to 71 °C.
Under `O=C1NC(=O)C(CCSSCCC2NC(=O)NC2=O)N1` (centres undefined) stands 236 to 238 °C; under `Cc1[nH]oc(=N)c1Br`, 67 to 69 °C; under `Cc1ccc(NC(N)=O)cc1F`, 190 to 192 °C.
As for `Sc1nnnn1CC1CCCO1` (centres undefined), the melting point was 28 to 30 °C.
As for `CCOC(=O)c1c(C)[nH]c(C=O)c1C`, the melting point is 162 to 164 °C.
Under `Fc1cc(Br)cc2cc(Br)cnc12` stands 161 to 163 °C; under `CCOC(=O)c1nnn(-c2cccc([N+](=O)[O-])c2)c1N`, 151 to 153 °C; under `O=C1NCCN1c1ccccc1[N+](=O)[O-]`, 153 to 155 °C.
As to `CCOC(=O)c1cc(N)c2c(c1)OCO2`, the melting point fell in the range of 68 to 70 °C.
Take `NC(C(=O)O)c1ccc(Br)cc1` (centres undefined): the melting point is 249 to 251 °C.
Under `COC(=O)C1CC(OC)=CC1=O` (centres undefined) stands 47 to 49 °C; under `COc1cccc(-c2c[nH]cc2C(=O)O)c1`, 143 to 145 °C; under `O=C(O)CN1C(=O)CNC1=O`, 185 to 187 °C.
`Cc1cc(Cl)c(CO)c(Cl)n1` had a melting point of 81 to 83 °C.
Under `Sc1nnc(-c2ccccc2)n1Cc1ccc2c(c1)OCO2` stands 118 to 120 °C; under `O=C(c1ccc(Cl)cc1)c1ccc2c(c1)OCO2`, 128 to 130 °C.
Under `COc1cc(CC#N)c(Br)cc1OC(F)F` stands 80 to 82 °C.
`O=C1NC(=O)c2cc(Cl)c(Cl)cc21` came in with a melting point of 217 to 219 °C.
Compound `CC(C)c1ncncc1C(=O)O` returned a melting point of 134 to 136 °C.
Regarding `Nc1ccc(-c2cc[nH]c2)cc1`, the melting point is 99 to 101 °C.
Under `O=C1NC(=O)C(Cc2c[nH]c3ccccc23)N1` (centres undefined) stands 235 to 237 °C.
Under `CCc1nnc(-c2ccc(N)cc2)o1` stands 137 to 139 °C.
Under `Nc1nc(-c2ccc3ccccc3n2)n[nH]1` stands 297 to 299 °C.
Consider `CCS(=O)(=O)NC1CCCNC1` (centres undefined), for which the melting point fell in the range of 104 to 106 °C.
Under `CC(=O)c1ccc2ccccc2n1` stands 47 to 49 °C; under `ClCc1cc(Cl)c2c(c1)OCCCO2`, 59 to 63 °C.
`ClCc1ncc(-c2ccc(Cl)cc2)o1` displayed a melting point of 53 to 57 °C.
`O=C(Nc1ccccc1)Nc1ccc(C(=O)O)cc1` showed a melting point of 260 to 262 °C.
Under `COC(=O)c1cc([N+](=O)[O-])cc([N+](=O)[O-])c1F` stands 67 to 69 °C; under `COC(=O)c1occc1CC#N`, 62 to 64 °C; under `O=[N+]([O-])c1c(NC2CC2)cccc1NC1CC1`, 116 to 118 °C.
In turn, `Clc1cc2nn[nH]c2cc1Cl` registered a melting point of 249 to 251 °C.
Under `O=C(O)COc1ccc(C2SCCCS2)cc1` stands 201 to 203 °C; under `CC(C)(C)c1ccc(C2(CN)CCCC2)cc1`, 62 to 64 °C; under `CC1(C(=O)O)CCCS1` (centres undefined), 38 to 40 °C.
Under `COc1ccc2[nH]cc(C3=CCNCC3)c2c1` stands 181 to 183 °C; under `Cn1c(=O)c2c(=O)cc(N)[nH]c2n(C)c1=O`, 316 to 318 °C.
Under `O=Cc1cc(Cl)c2c(c1)OCCCO2` stands 78 to 82 °C.
In turn, `CCn1c(C)cc(C(=O)CCl)c1C` showed a melting point of 89 to 91 °C.
`CC(=NO)c1ccc(OCc2ccc(F)cc2)cc1` showed a melting point of 151 to 153 °C.
Under `Clc1nc(Cl)c2ccccc2n1` stands 117 to 119 °C; under `O=C(c1ccc(Br)o1)N1CCNCC1`, 118 to 120 °C; under `Cc1noc(C)c1COc1cccc(C(=O)O)c1`, 157 to 159 °C.
Under `O=C(O)C1CCN(C(=O)/C=C/c2ccccc2)CC1` stands 191 to 196 °C.
`Cc1n[nH]c2ncc(N)cc12` had a melting point of 186 to 188 °C.
Compound `[N-]=[N+]=NCC(=O)NCc1ccccc1` had a melting point of 39 to 41 °C.
Under `CS(=O)(=O)OCCN1C(=O)c2ccccc2C1=O` stands 140 to 142 °C; under `CC(C)(C)OC(=O)Nc1cc(N)c(F)cc1F`, 117 to 119 °C; under `CCn1c(S)nnc1-c1ccc(Cl)cc1`, 211 to 213 °C.
Under `COC(=O)N1CCC(N)CC1` stands 40 to 42 °C; under `CC(C)(c1ccccc1)c1nnc(N)s1`, 149 to 151 °C; under `OCc1cnn(Cc2ccc(Br)cc2)c1`, 72 to 74 °C.
`O=S(=O)(Cl)c1c(Cl)nc2ccccn12` showed a melting point of 101 to 103 °C.
`Cc1nc(-c2ccc(N)cc2)oc1C` showed a melting point of 150 to 152 °C.
`CCNc1nnc(C)c2ccccc12` showed a melting point of 135 to 137 °C.
Under `CCC(C#N)NC(=O)c1ccccc1` (centres undefined) stands 104 to 106 °C; under `CCc1c(C(C)(C)C)noc1N`, 75 to 77 °C; under `COc1cc(CN2CCNCC2)cc(OC)c1OC`, 102 to 104 °C.
Under `Cc1nc2nc(Br)ccc2o1` stands 76 to 78 °C; under `NC(=O)Nc1cccc2ccccc12`, 284 to 286 °C.
Regarding `CC(C)Cc1nc(N)sc1C(=O)O`, the melting point lay within 149 to 151 °C.
In the case of `CCCCN1C(=O)c2ccc(C(=O)O)cc2C1=O`, the melting point was 152 to 154 °C.
As to `CC(=O)N1CCc2ccccc2C1CC(=O)O` (centres undefined), the melting point lay in the range of 163 to 167 °C.
Under `CCS(=O)(=O)NCCC(=O)O` stands 63 to 65 °C; under `CC(=O)c1ccc(N2CCCCC2)c(F)c1`, 67 to 69 °C; under `CSc1nnnn1-c1cccc(N)c1`, 113 to 115 °C.
As for `OCc1cc(Br)c2c(c1)OCO2`, the melting point is 134 to 136 °C.
The compound `Cn1cccc1C(=O)NC(=O)CCl` returned a melting point of 139 to 141 °C.
Take `NS(=O)(=O)c1ccc2c(c1)NCCC2`: the melting point was 164 to 166 °C.
Under `COC(=O)c1ccc(=O)[nH]n1` stands 188 to 190 °C; under `Nc1cc(Cl)ccc1Sc1ccccc1`, 62 to 64 °C.
In turn, `CCOc1ccc(-c2csc(=O)[nH]2)cc1` registered a melting point of 222 to 224 °C.
Under `CCc1ccnc(C(=O)O)c1` stands 109 to 111 °C.
Under `CC(C)NC(=O)C(=O)NN` stands 158 to 160 °C; under `O=S(=O)(Cl)Cc1cc(-c2ccccc2)no1`, 115 to 117 °C.
Under `O=C(O)C1(c2c(Cl)cccc2Cl)CC1` stands 216 to 218 °C; under `Cc1cccc2[nH]cc(CC(=O)O)c12`, 149 to 151 °C.
Take `CCCc1cc(N)n(C)n1`: the melting point was in the range of 68 to 70 °C.
Under `Nc1ccc(Cl)c(CN2CCCCC2)c1` stands 125 to 127 °C; under `Cc1nn(C)c(C)c1C(=O)C(=O)O`, 160 to 168 °C; under `O=[N+]([O-])c1ccccc1Nc1ccc(F)cc1F`, 79 to 81 °C.
Under `NC(=O)c1ncccc1N` stands 176 to 178 °C; under `COc1cccc(-c2cc(N)n(C)n2)c1`, 94 to 96 °C.
Under `O=C(O)c1cc2c(Cl)c(Cl)ccc2[nH]1` stands 281 to 283 °C; under `O=C1COc2ccc(C(=O)/C=C/c3ccccc3)cc2N1`, 228 to 230 °C.
Compound `CCOC(=O)c1ccc(C(C)=O)cc1` gave a melting point of 55 to 57 °C.
Under `COC(=O)c1ccc2[nH]c(=O)[nH]c2c1` stands 303 to 305 °C.
Under `O=S(=O)(c1ccc(F)cc1)N1CCCNCC1` stands 180 to 182 °C; under `CCOC(=O)NC1CCC(O)CC1` (centres undefined), 132 to 134 °C.
As for `NNC(=O)c1csc(N2CCOCC2)n1`, the melting point fell in the range of 168 to 170 °C.
Under `Cn1c(=O)[nH]c(=O)c2cc(S(N)(=O)=O)cnc21` stands 311 to 313 °C.
Under `O=C(O)c1ccc(COc2ccc(Br)cc2)o1` stands 194 to 196 °C.
Compound `O=C(O)CS(=O)(=O)c1cccc(Br)c1` showed a melting point of 139 to 141 °C.
Under `CS(=O)(=O)c1ccc(OCCN)cc1` stands 63 to 65 °C; under `CCOC(=O)c1c(C)nn(C)c1N`, 101 to 103 °C; under `CC(C)c1cc(Br)ccc1O`, 48 to 50 °C.
Under `CC(Cl)C(=O)Nc1cccc(Cl)c1` (centres undefined) stands 98 to 100 °C; under `CC(C)(C)c1cc(N)n(-c2ncccn2)n1`, 194 to 196 °C; under `Nc1cc(-c2cccc(Br)c2)no1`, 122 to 124 °C.
Under `Cc1ccc(NC(N)=S)cc1C` stands 184 to 186 °C; under `Cc1nc(C)c(-c2csc(N)n2)s1`, 125 to 127 °C.
